Reference: US6689790B2, “Substituted triazolopyridine compounds” (Hoffmann-La Roche Inc., priority 2001, dated 2004)

Assays:
[1] = biological target: T1, hA1 (Homo sapiens, UniProt P30542); assay: hA1 receptor affinity (Ki); type: binding; conditions: list of examples 10-108
T1 sequence (P30542 1-326): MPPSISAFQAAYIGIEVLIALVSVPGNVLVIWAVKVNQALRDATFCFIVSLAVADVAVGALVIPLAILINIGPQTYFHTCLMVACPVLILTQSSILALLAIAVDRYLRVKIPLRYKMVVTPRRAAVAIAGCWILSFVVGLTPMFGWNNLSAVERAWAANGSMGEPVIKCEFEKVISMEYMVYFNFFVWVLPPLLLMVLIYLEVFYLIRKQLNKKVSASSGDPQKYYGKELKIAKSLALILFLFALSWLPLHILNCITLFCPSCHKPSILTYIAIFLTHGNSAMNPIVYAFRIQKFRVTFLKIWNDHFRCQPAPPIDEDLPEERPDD

[2] = biological target: T2, human adenosine A2A receptor (Homo sapiens, UniProt P29274); assay: [3H]-SCH-58261 binding assay, human adenosine A2A receptor (CHO cell membranes, SPA); conditions: for Ki: [3H]-SCH-58261 displacement, Ki by Cheng-Prussoff, table of preferred compounds, read-out: hA2a Ki; for Select. A1/A2a: ratio hA1 Ki / hA2a Ki
T2 construct: expressed in transfected cells; host or cells: CHO cells, semliki forest virus expression system; washed membranes
T2 sequence (P29274 whole entry): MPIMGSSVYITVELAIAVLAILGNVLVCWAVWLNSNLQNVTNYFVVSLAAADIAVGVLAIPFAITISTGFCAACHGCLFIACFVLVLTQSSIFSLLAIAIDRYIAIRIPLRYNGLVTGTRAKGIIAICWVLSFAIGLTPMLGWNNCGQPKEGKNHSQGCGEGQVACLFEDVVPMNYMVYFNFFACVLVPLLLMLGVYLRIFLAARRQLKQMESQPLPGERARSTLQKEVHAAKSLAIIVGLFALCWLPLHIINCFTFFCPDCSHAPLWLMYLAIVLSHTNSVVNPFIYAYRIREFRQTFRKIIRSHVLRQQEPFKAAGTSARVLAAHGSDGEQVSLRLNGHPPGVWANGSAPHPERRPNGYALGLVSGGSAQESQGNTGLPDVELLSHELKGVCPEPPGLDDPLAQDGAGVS

Compound	Ki [1] [nM]	Ki [2] [nM]	Select. A1/A2a [2]
Nc1cc(C(=O)N(Cc2ccccc2)Cc2ccccc2)cn2nc(-c3cccs3)nc12 [Example 64, 8-Amino-2-thiophen-2-yl-[1,2,4]triazolo[1,5-a]pyridine-6-carboxylic acid dibenzylamide]	311	83	3.7
Cc1ccc(-c2nc3c(N)cc(C(=O)N4CCCC4C)cn3n2)o1 (stereo not drawn) [Example 85, [8-Amino-2-(5-methyl-furan-2-yl)-[1,2,4]triazolo[1,5-a]pyridin-6-yl]-(2-methyl-pyrrolidin-1-yl)-methanone]	1360	75.2	18.1
Cc1ccc(-c2nc3c(N)cc(C(=O)N4CCCC(C)C4)cn3n2)o1 (stereo not drawn) [Example 88, [8-Amino-2-(5-methyl-furan-2-yl)-[1,2,4]triazolo[1,5-a]pyridin-6-yl]-(3-methyl-piperidin-1-yl)-methanone]	1350	56.2	24
